Measurements: US12262710B2, “Fungicidal compounds” (SYNGENTA CROP PROTECTION AG, priority 2019, dated 2025)

Columns and labels:
[1] = tested on: Puccinia recondita f. sp. tritici; assay: Puccinia recondita (brown rust), preventative, wheat leaf segments; type: in vivo; details: foliar, 192 h, 8 dpi, compared to untreated control
Description: (§1) Wheat leaf segments are placed on agar in multiwell plates (24-well format) and sprayed with test solutions. After drying, the leaf segments are inoculated with a spore suspension of the fungus. After appropriate incubation the activity of a compound is assessed 8 dpi (days after inoculation) as preventative fungicidal activity.

Monographella nivalis = Monographella nivalis syn. Microdochium nivale (snow mould, foot rot of cereals), liquid culture growth inhibition; type: cell-based; details: nutrient broth (PDB), 72 hrs, photometric at 620 nm, compared to untreated control
Description: Conidia of the fungus from cryogenic storage were directly mixed into nutrient broth (PDB potato dextrose broth). A DMSO solution of the test compounds was placed into a microtiter plate (96-well format) and the nutrient broth containing the fungal spores was added to it. The test plates were incubated at 24° C. and the inhibition of growth was determined photometrically after 72 hrs at 620 nm. […] Cercospora arachidicola (Brown Leaf Spot of Peanut): […]

Mycosphaerella arachidis = Mycosphaerella arachidis syn. Cercospora arachidicola (brown leaf spot of peanut), liquid culture growth inhibition; type: cell-based; details: nutrient broth (PDB), approximately 5-6 days, photometric at 620 nm, compared to untreated control
Description: Conidia of the fungus from cryogenic storage were directly mixed into nutrient broth (PDB potato dextrose broth). A DMSO solution of the test compounds was placed into a microtiter plate (96-well format) and the nutrient broth containing the fungal spores was added to it. The test plates were incubated at 24° C. and the inhibition of growth was determined photometrically after approximately 5-6 […] at 620 nm.

[2] = tested on: Erysiphe graminis f. sp. tritici; assay: Erysiphe graminis f. sp. tritici (wheat powdery mildew), wheat leaf segments, preventive; type: in vivo; details: Blumeria graminis, foliar, 168 h, 7 dpi, compared to untreated control
Description: Wheat leaf segments are placed on agar in multiwell plates (24-well format) and sprayed with test solutions. After drying, the leaf disks are inoculated with spores of the fungus. After appropriate incubation the activity of a compound is assessed 7 dpi (days post inoculation) as preventive fungicidal activity.

Plasmopara viticola = Plasmopara viticola (downy mildew of grapevine), grape vine leaf disks, preventive; type: in vivo; details: foliar, 168 h, 7 dpi, compared to untreated control
Description: as §1, with “Grape vine” for “Wheat”, “disks” for “segments”, “7” for “8”, “preventive” for “preventative”

Glomerella lagenarium = Glomerella lagenarium syn. Colletotrichum lagenarium (anthracnose of cucurbits), liquid culture growth inhibition; type: cell-based; details: Colletotrichum orbiculare, nutrient broth (PDB), 72 hrs, photometric at 620 nm, compared to untreated control
Description: Glomerella lagenarium Syn. Colletotrichum lagenarium (Anthracnose of Cucurbits): Conidia of the fungus from cryogenic storage were directly mixed into nutrient broth (PDB potato dextrose broth). A DMSO solution of the test compounds was placed into a microtiter plate (96-well format) and the nutrient broth containing the fungal spores was added to it. The test plates were incubated at 24° C. and the inhibition of growth was determined photometrically after 72 hrs at 620 nm. […]

Pyricularia oryzae = assay: whole plant or invertebrate; type: in vivo; details: foliar, 120 h, read-out: control of Pyricularia oryzae
Phakopsora pachyrhizi [3] = assay: Phakopsora pachyrhizi (soybean rust), soybean leaf disks, preventive; type: in vivo; details: foliar, 288 h, approx. 12 dpi, compared to untreated control
Description: as §1, with “Soybean” for “Wheat”, “disks” for “segments”, “approx. 12” for “8”, “preventive” for “preventative”

Phakopsora pachyrhizi [4] = assay: Example D: comparative activity against Phakopsora pachyrhizi (soybean rust), soybean plants sprayed, leaf disks cut from treated plants; type: in vivo; details: 0.1% OCHIMA, leaf disks cut one day after application, approx. 12 dpi
Description: Method: Soybean plants are sprayed in a spray chamber with formulated DMSO compound solutions which are diluted to the appropriate concentration with 0.1% […] (adjuvant comprising polyethoxylated sorbitol hexaoleate and tris(2-ethylhexyl) phosphate) just before spraying. Leaf disks are cut from treated plants and placed on agar into 24-well plates one day after application. After, the leaf disks are inoculated with a spore suspension of the fungus. After appropriate incubation the activity of a compound is assessed approx. 12 dpi (days after inoculation) as preventive fungicidal activity. The data are presented as the percentage of disease control of each compound for the biological tests and testing rates described below in Table 1.

Phakopsora pachyrhizi [5] = assay: Example E: comparative activity against Phakopsora pachyrhizi (soybean rust), soybean leaf disks sprayed; type: in vivo; details: 0.025% Tween20, approx. 12 dpi
Description: Method: Compounds to be tested are prepared as DMSO solutions which are diluted to the appropriate concentration with 0.025% Tween20 just before spraying. Soybean leaf disks are placed on agar in multiwell plates (24-well format) and sprayed with test solutions. After drying, the leaf disks are inoculated with a spore suspension of the fungus. After appropriate incubation the activity of a compound is assessed approx. 12 dpi (days after inoculation) as preventive fungicidal activity. The data are presented as the percentage of disease control of each compound for the biological tests and testing rates described below in Table J.

Puccinia recondita = assay: Example C: comparative activity against Puccinia recondita (brown rust), curative, wheat leaf segments; type: in vivo; details: 8 dpi
Description: Method; Wheat leaf segments are placed on agar in multiwell plates (24-well format). The leaf segments are inoculated with a spore suspension of the fungus and sprayed with test solutions 1 day after inoculation. After appropriate incubation the activity of a compound is assessed 8 dpi (days after inoculation) as curative fungicidal activity. The data are presented as the percentage of disease control of each compound for the biological tests and testing rates described below in table H.

[6] = tested on: Puccinia recondita f. sp. tritici; assay: Puccinia recondita (brown rust), curative, wheat leaf segments; type: in vivo; details: foliar, 192 h, sprayed 1 day after inoculation, 8 dpi, compared to untreated control
Description: Wheat leaf segments are placed on agar in multiwell plates (24-well format). The leaf segments are inoculated with a spore suspension of the fungus and sprayed with test solutions 1 day after inoculation. After appropriate incubation the activity of a compound is assessed 8 dpi (days after inoculation) as curative fungicidal activity.

Row | SMILES | pest or weed control at 200 ppm [1] [%] | inhibition of growth at 20 ppm (Monographella nivalis) [%] | inhibition of growth at 20 ppm (Mycosphaerella arachidis) [%] | pest or weed control at 200 ppm [2] [%] | pest or weed control at 200 ppm (Plasmopara viticola) [%] | inhibition of growth at 20 ppm (Glomerella lagenarium) [%] | also measured
1 | CO/C=C(\Oc1cc(C2CCC(C(F)(F)F)CC2)ccc1C)C(=O)OC (centres unmarked) [E.1, methyl (Z)-3-methoxy-2-[2-methyl-5-[4-(trifluoromethyl)cyclohexyl]phenoxy] prop-2-enoate] | ≥ 80 | ≥ 80 | ≥ 80 | ≥ 80 | – | – | –
2 | CO/C=C(\Oc1cc(C2CCCCC2)ccc1Br)C(=O)OC [E.8, methyl (Z)-2-(2-bromo-5-cyclohexyl-phenoxy)-3-methoxy-prop-2-enoate] | ≥ 80 | ≥ 80 | ≥ 80 | ≥ 80 | ≥ 80 | – | –
3 | CO/C=C(\Oc1cc(C2CCCCCC2)ccc1C)C(=O)OC [E.3, methyl (Z)-2-(5-cyclohepty1-2-methyl-phenoxy)-3-methoxy-prop-2-enoate] | ≥ 80 | ≥ 80 | ≥ 80 | ≥ 80 | ≥ 80 | ≥ 80 | pest or weed control at 200 ppm (Pyricularia oryzae): ≥ 80%
4 | CO/C=C(\Oc1cc(C2CCCCC2)ccc1F)C(=O)OC [E.11, methyl (Z)-2-(5-cyclohexy1-2-fluoro-phenoxy)-3-methoxy-prop-2-enoate] | – | ≥ 80 | ≥ 80 | ≥ 80 | ≥ 80 | ≥ 80 | –
5 | CO/C=C(\Oc1cc(C2=CCCCCC2)ccc1C)C(=O)OC [F.5, methyl (Z)-2-[5-(cyclohepten-1-yl)-2-methyl-phenoxy]-3-methoxy-prop-2-enoate] | – | ≥ 80 | ≥ 80 | ≥ 80 | ≥ 80 | ≥ 80 | –
6 | CO/C=C(\Oc1cc(C2CCC(C(C)C)CC2)ccc1C)C(=O)OC (centres unmarked) [E.17, methyl (Z)-2-[5-(4-isopropylcyclohexyl)-2-methyl-phenoxy]-3-methoxy-prop-2-enoate] | – | ≥ 80 | ≥ 80 | ≥ 80 | – | ≥ 80 | –
7 | CO/C=C(\Oc1cc(C2=CCC(F)(F)CC2)ccc1C)C(=O)OC [F.3, methyl (Z)-2-[5-(4,4-difluorocyclohexen-1-yl)-2-methyl-phenoxy]-3-methoxy-prop-2-enoate] | ≥ 80 | ≥ 80 | ≥ 80 | ≥ 80 | ≥ 80 | ≥ 80 | pest or weed control at 60 ppm (Phakopsora pachyrhizi [3]): ≥ 70%
8 | CO/C=C(\Oc1cc(C#CC2CCCCC2)ccc1C)C(=O)OC [Compound X-1, reference compound] | – | – | – | – | – | – | control (%) Phakopsora pachyrhizi (Soybean rust) (Phakopsora pachyrhizi [4]; 6 ppm): 0%; control (%) Phakopsora pachyrhizi (Soybean rust) (Phakopsora pachyrhizi [4]; 20 ppm): 0%; control (%) Phakopsora pachyrhizi (Soybean rust) (Phakopsora pachyrhizi [4]; 60 ppm): 0%; control (%) Phakopsora pachyrhizi (Soybean rust) (Phakopsora pachyrhizi [4]; 200 ppm): 63%; control (%) Phakopsora pachyrhizi (Soybean rust) (Phakopsora pachyrhizi [5]; 0.6 ppm): 0%; control (%) Phakopsora pachyrhizi (Soybean rust) (Phakopsora pachyrhizi [5]; 2 ppm): 0%; control (%) Phakopsora pachyrhizi (Soybean rust) (Phakopsora pachyrhizi [5]; 6 ppm): 35%; control (%) Phakopsora pachyrhizi (Soybean rust) (Phakopsora pachyrhizi [5]; 20 ppm): 80%; control (%) Phakopsora pachyrhizi (Soybean rust) (Phakopsora pachyrhizi [5]; 60 ppm): 100%; control (%) Phakopsora pachyrhizi (Soybean rust) (Phakopsora pachyrhizi [5]; 200 ppm): 100%; control (%) Puccinia recondita (Brown rust), curative (Puccinia recondita; 20 ppm): 0%; control (%) Puccinia recondita (Brown rust), curative (Puccinia recondita; 60 ppm): 0%; control (%) Puccinia recondita (Brown rust), curative (Puccinia recondita; 200 ppm): 0%
9 | CO/C=C(\Oc1cc(C2CCC(F)(F)CC2)ccc1C)C(=O)OC [E.6, methyl (Z)-2-[5-(4,4-difluorocyclohexyl)-2-methyl-phenoxy]-3-methoxy-prop-2-enoate] | ≥ 80 | ≥ 80 | ≥ 80 | ≥ 80 | ≥ 80 | ≥ 80 | pest or weed control at 200 ppm (Pyricularia oryzae): ≥ 80%
10 | CO/C=C(\Oc1cc(C2CCC(OC)CC2)ccc1C)C(=O)OC (centres unmarked) [E.19, methyl (Z)-3-methoxy-2-[5-(4-methoxycyclohexyl)-2-methyl-phenoxy]prop-2-enoate] | ≥ 80 | ≥ 80 | ≥ 80 | ≥ 80 | ≥ 80 | ≥ 80 | pest or weed control at 200 ppm [6]: ≥ 80%
11 | CO/C=C(\Oc1cc(C2=CCC(C)(C)CC2)ccc1C)C(=O)OC [F.10, methyl (Z)-2-[5-(4,4-dimethylcyclohexen-1-yl)-2-methyl-phenoxy]-3-methoxy-prop-2-enoate] | ≥ 80 | ≥ 80 | ≥ 80 | ≥ 80 | ≥ 80 | ≥ 80 | –
12 | CO/C=C(\Oc1cccc(C(C)(C)C)c1)C(=O)OC [Compound X-2, reference compound] | – | – | – | – | – | – | control (%) Phakopsora pachyrhizi (Soybean rust) (Phakopsora pachyrhizi [4]; 6 ppm): 0%; control (%) Phakopsora pachyrhizi (Soybean rust) (Phakopsora pachyrhizi [4]; 20 ppm): 0%; control (%) Phakopsora pachyrhizi (Soybean rust) (Phakopsora pachyrhizi [4]; 60 ppm): 0%; control (%) Phakopsora pachyrhizi (Soybean rust) (Phakopsora pachyrhizi [4]; 200 ppm): 0%; control (%) Phakopsora pachyrhizi (Soybean rust) (Phakopsora pachyrhizi [5]; 0.6 ppm): 0%; control (%) Phakopsora pachyrhizi (Soybean rust) (Phakopsora pachyrhizi [5]; 2 ppm): 0%; control (%) Phakopsora pachyrhizi (Soybean rust) (Phakopsora pachyrhizi [5]; 6 ppm): 0%; control (%) Phakopsora pachyrhizi (Soybean rust) (Phakopsora pachyrhizi [5]; 20 ppm): 0%; control (%) Phakopsora pachyrhizi (Soybean rust) (Phakopsora pachyrhizi [5]; 60 ppm): 10%; control (%) Phakopsora pachyrhizi (Soybean rust) (Phakopsora pachyrhizi [5]; 200 ppm): 10%; control (%) Puccinia recondita (Brown rust), curative (Puccinia recondita; 20 ppm): 0%; control (%) Puccinia recondita (Brown rust), curative (Puccinia recondita; 60 ppm): 0%; control (%) Puccinia recondita (Brown rust), curative (Puccinia recondita; 200 ppm): 0%
13 | CO/C=C(\Oc1cc(C2=CCC(O)CC2)ccc1C)C(=O)OC (centres unmarked) [F.8, methyl (Z)-2-[5-(4-hydroxycyclohexen-1-yl)-2-methyl-phenoxy]-3-methoxy-prop-2-enoate] | ≥ 80 | ≥ 80 | ≥ 80 | ≥ 80 | – | – | –
14 | CO/C=C(\Oc1cc(C2CCCCC2)ccc1OC)C(=O)OC [E.10, methyl (Z)-2-(5-cyclohexy1-2-methoxy-phenoxy)-3-methoxy-prop-2-enoate] | ≥ 80 | ≥ 80 | ≥ 80 | ≥ 80 | ≥ 80 | – | –
